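In this assay, cells in 96-well plates receive the compound at five concentrations for 48 hours. Endpoints are linearly interpolated between the surrounding concentrations. GI50 marks 50% less growth.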 Calls of active or inactive are those of the source. Cut-off read from the data, not from the text of the source: active = GI50 up to about 1.1 µM and inactive = higher.

The record followed here is ChEMBL document CHEMBL1201862, “PubChem BioAssay data set” (2004).

Some test systems named below: 786-0; HL-60; SK-OV-3; PC-3; DU-145; CCRF-CEM; A549; MCF7; IGROV-1; OVCAR-4; OVCAR-3; U-251; ACHN; SF-268; SN12C; BT-549; SW-620; SF-295; HCT-116; SNB-19.
Common to all, as to test: inhibition of tumour cell growth, NCI panel, 48 h

For the compound `CCOC1NC(=O)c2ccccc21` (stereo not drawn), the GI50 with 786-0, in the assay with HL-60, with SK-OV-3, with PC-3, in the assay on DU-145 and in the assay on CCRF-CEM was > 100 µM (inactive) each time. For the same compound, the GI50 in the assay on A549, with MCF7, in the assay with IGROV-1, with OVCAR-4, in the assay on OVCAR-3 and with U-251 was > 100 µM (inactive) each time. The GI50 in the assay on ACHN, in the assay with SF-268, in the assay with SN12C, with BT-549, with SW-620 and in the assay with SF-295 was > 100 µM (inactive) each time. Moreover, the GI50 with HCT-116 and with SNB-19 was > 100 µM (inactive) in each case.

With `COC(=O)[C@]12CCC(C)(C)C[C@H]1[C@H]1C(=O)C=C3[C@@]4(C)C=C(C#N)C(=O)C(C)(C)[C@@H]4CC[C@@]3(C)[C@]1(C)CC2` [BARDOXOLONE METHYL], the GI50 in the assay with 786-0 was 0.0279 µM (active); in the assay on HL-60 it was < 0.0138 µM (active); in the assay with SK-OV-3, 0.126 µM (active); with PC-3, 0.0165 µM (active); in the assay on DU-145, 0.0239 µM (active); in the assay on CCRF-CEM, < 0.01 µM (active). Besides, the GI50 in the assay with A549 is 0.0294 µM (active); with MCF7, < 0.0107 µM (active); in the assay on IGROV-1, 0.0405 µM (active); in the assay with OVCAR-4, 0.162 µM (active); with OVCAR-3 it was 0.0103 µM (active); with U-251 it was 0.0232 µM (active). The GI50 in the assay with ACHN is 0.0285 µM (active); in the assay with SF-268 it was 0.0238 µM (active); in the assay on SN12C it was 0.0237 µM (active); in the assay with BT-549, 0.0339 µM (active); with SW-620 it was 0.0219 µM (active); in the assay with SF-295, 0.0289 µM (active). Besides, the GI50 with HCT-116 is 0.0131 µM (active); in the assay with SNB-19, 0.0408 µM (active).

Consider `C[C@@H](NC(=O)Cn1c(Cl)nc2ccccc21)c1ccccc1`, for which the GI50 with 786-0, in the assay on HL-60, with SK-OV-3, with PC-3, with DU-145 and in the assay with CCRF-CEM was > 100 µM (inactive) in each case. In addition, the GI50 in the assay on A549, in the assay on MCF7, in the assay on OVCAR-4, in the assay on OVCAR-3, with U-251 and in the assay with ACHN was > 100 µM (inactive) in each case. Moreover, the GI50 in the assay with SF-268, in the assay with BT-549, in the assay with SW-620, in the assay on SF-295, in the assay with HCT-116 and with SNB-19 was > 100 µM (inactive) in each case.

As to `CN(C)/C=N/c1c2ccccc2nc2ccccc12`, the GI50 is 5.14 µM (inactive) in the assay on 786-0; 3.65 µM (inactive) in the assay on HL-60; 5.64 µM (inactive) in the assay on SK-OV-3; 2.98 µM (inactive) in the assay with PC-3; 4.83 µM (inactive) in the assay on DU-145; 4.21 µM (inactive) in the assay on CCRF-CEM. Further, the GI50 with A549 is 4.61 µM (inactive); in the assay on MCF7 it was 2.54 µM (inactive); with IGROV-1, 4.23 µM (inactive); with OVCAR-4, 6.64 µM (inactive); in the assay with OVCAR-3, 3.05 µM (inactive); in the assay with U-251 it was 4.17 µM (inactive). For the same compound, the GI50 is 5.02 µM (inactive) with ACHN; 3.35 µM (inactive) with SF-268; 2.53 µM (inactive) in the assay with SN12C; 3.06 µM (inactive) with BT-549; 5.7 µM (inactive) in the assay on SF-295; 3.57 µM (inactive) with HCT-116. In addition, in the assay on SNB-19, the GI50 was 4.25 µM (inactive).

`c1ccc2c(c1)SCCCS2`: the GI50 in the assay on 786-0, in the assay with HL-60, with SK-OV-3, in the assay on PC-3, in the assay on DU-145 and in the assay on CCRF-CEM was > 100 µM (inactive) each time. Moreover, the GI50 in the assay on A549, in the assay with MCF7, with IGROV-1, in the assay with OVCAR-4, in the assay on OVCAR-3 and in the assay with U-251 was > 100 µM (inactive) throughout. For the same compound, the GI50 in the assay on SF-268, in the assay on SN12C, with BT-549, in the assay with SW-620, with SF-295 and in the assay on HCT-116 was > 100 µM (inactive) throughout. Also, the GI50 in the assay with SNB-19 is > 100 µM (inactive).

`CCOP(=O)(CC(=O)C1CC1)OCC`: the GI50 with 786-0, in the assay on HL-60, in the assay with SK-OV-3, with PC-3, in the assay on DU-145 and in the assay on CCRF-CEM was > 100 µM (inactive) throughout. For the same compound, the GI50 in the assay on A549, in the assay with MCF7, in the assay with IGROV-1, in the assay on OVCAR-4, with U-251 and in the assay on ACHN was > 100 µM (inactive) in each case. The GI50 with SF-268, with SN12C, in the assay on BT-549, with SW-620, in the assay with SF-295 and with HCT-116 was > 100 µM (inactive) throughout. For the same compound, the GI50 in the assay with SNB-19 was > 100 µM (inactive).

Regarding `CCN(CC)c1ccc2cc(-c3nc(O)c4ccccc4n3)c(=N)oc2c1`, the GI50 with 786-0, in the assay with HL-60, in the assay on SK-OV-3, with PC-3, in the assay on DU-145 and in the assay on CCRF-CEM was > 100 µM (inactive) in each case. The GI50 with A549, with MCF7, with IGROV-1, in the assay with OVCAR-4, in the assay on U-251 and with ACHN was > 100 µM (inactive) each time. For the same compound, the GI50 with SF-268, in the assay on SN12C, in the assay with BT-549, in the assay with SW-620, in the assay with SF-295 and with HCT-116 was > 100 µM (inactive) in each case. Further, the GI50 with SNB-19 is > 100 µM (inactive).

For `CCCCCC/C=C\CCCCCCCCCC1=C(CN2CCN(C)CC2)C(=O)C=C(OC)C1=O`, the GI50 with 786-0 was 1.67 µM (inactive); in the assay on HL-60 it was 0.881 µM (active); in the assay on SK-OV-3 it was 13.2 µM (inactive); in the assay with PC-3 it was 2.37 µM (inactive); in the assay with DU-145, 13.4 µM (inactive); in the assay with CCRF-CEM, 0.465 µM (active). The GI50 is 3.83 µM (inactive) in the assay with A549; 4.3 µM (inactive) in the assay with MCF7; 5.93 µM (inactive) in the assay with IGROV-1; 1.76 µM (inactive) with OVCAR-4; 6.76 µM (inactive) in the assay with OVCAR-3; 3.28 µM (inactive) in the assay with ACHN. Moreover, the GI50 with SF-268 was 5.61 µM (inactive); in the assay with SN12C it was 4.37 µM (inactive); with BT-549, 3.87 µM (inactive); with SW-620 it was 1.59 µM (inactive); in the assay on SF-295, 6.3 µM (inactive); with HCT-116 it was 2.14 µM (inactive). Further, the GI50 with SNB-19 was 11.8 µM (inactive).
